In the NIST ThermoML archive (doi:10.1016/j.jct.2007.04.005):

Experiment: xn = mol fraction of the nth substance listed
Conditions: 308.15 K, Liquid

CCCCCCCCC [nonane] + C1CCCCC1
Conditions	mass density [kg/m3]
100 kPa, x2 = 0	705.8
100 kPa, x2 = 0.09303	708.8
100 kPa, x2 = 0.2009	712.6
100 kPa, x2 = 0.3051	716.8
100 kPa, x2 = 0.417	721.7
100 kPa, x2 = 0.512	726.3
100 kPa, x2 = 0.5996	731.2
100 kPa, x2 = 0.7052	737.9
100 kPa, x2 = 0.7993	745
100 kPa, x2 = 0.9039	754
101 kPa, x2 = 0	706.11
101 kPa, x2 = 0.1022	709.37
101 kPa, x2 = 0.1548	711.18
101 kPa, x2 = 0.2009	712.84
101 kPa, x2 = 0.2591	715.05
101 kPa, x2 = 0.3306	717.98
101 kPa, x2 = 0.4003	721.05
101 kPa, x2 = 0.4596	723.89
101 kPa, x2 = 0.5321	727.62
101 kPa, x2 = 0.612	732.19
101 kPa, x2 = 0.6649	735.49
101 kPa, x2 = 0.7224	739.39
101 kPa, x2 = 0.8047	745.58
101 kPa, x2 = 0.8686	751
101 kPa, x2 = 0.9405	757.89
2130 kPa, x2 = 0	707.5
2130 kPa, x2 = 0.09303	710.5
2130 kPa, x2 = 0.2009	714.3
2130 kPa, x2 = 0.3051	718.5
2130 kPa, x2 = 0.417	723.4
2130 kPa, x2 = 0.512	728
2130 kPa, x2 = 0.5996	733
2130 kPa, x2 = 0.7052	739.7
2130 kPa, x2 = 0.7993	746.8
2130 kPa, x2 = 0.9039	755.7
4150 kPa, x2 = 0	709.2
4150 kPa, x2 = 0.09303	712.2
4150 kPa, x2 = 0.2009	716
4150 kPa, x2 = 0.3051	720.2
4150 kPa, x2 = 0.417	725.1
4150 kPa, x2 = 0.512	729.7
4150 kPa, x2 = 0.5996	734.7
4150 kPa, x2 = 0.7052	741.5
4150 kPa, x2 = 0.7993	748.5
4150 kPa, x2 = 0.9039	757.5
6180 kPa, x2 = 0	710.9
6180 kPa, x2 = 0.09303	713.9
6180 kPa, x2 = 0.2009	717.7
6180 kPa, x2 = 0.3051	721.9
6180 kPa, x2 = 0.417	726.8
6180 kPa, x2 = 0.512	731.4
6180 kPa, x2 = 0.5996	736.4
6180 kPa, x2 = 0.7052	743.2
6180 kPa, x2 = 0.7993	750.3
6180 kPa, x2 = 0.9039	759.3
8210 kPa, x2 = 0	712.5
8210 kPa, x2 = 0.09303	715.5
8210 kPa, x2 = 0.2009	719.4
8210 kPa, x2 = 0.3051	723.6
8210 kPa, x2 = 0.417	728.5
8210 kPa, x2 = 0.512	733.1
8210 kPa, x2 = 0.5996	738.1
8210 kPa, x2 = 0.7052	744.9
8210 kPa, x2 = 0.7993	752
8210 kPa, x2 = 0.9039	761
10230 kPa, x2 = 0	714.1
10230 kPa, x2 = 0.09303	717.1
10230 kPa, x2 = 0.2009	721
10230 kPa, x2 = 0.3051	725.2
10230 kPa, x2 = 0.417	730.1
10230 kPa, x2 = 0.512	734.7
10230 kPa, x2 = 0.5996	739.8
10230 kPa, x2 = 0.7052	746.6
10230 kPa, x2 = 0.7993	753.6
10230 kPa, x2 = 0.9039	762.7
11250 kPa, x2 = 0	714.9
11250 kPa, x2 = 0.09303	717.9
11250 kPa, x2 = 0.2009	721.8
11250 kPa, x2 = 0.3051	726
11250 kPa, x2 = 0.417	730.9
11250 kPa, x2 = 0.512	735.5
11250 kPa, x2 = 0.5996	740.6
11250 kPa, x2 = 0.7052	747.4
11250 kPa, x2 = 0.7993	754.4
11250 kPa, x2 = 0.9039	763.5
12260 kPa, x2 = 0	715.7
12260 kPa, x2 = 0.09303	718.7
12260 kPa, x2 = 0.2009	722.6
12260 kPa, x2 = 0.3051	726.8
12260 kPa, x2 = 0.417	731.7
12260 kPa, x2 = 0.512	736.3
12260 kPa, x2 = 0.5996	741.4
12260 kPa, x2 = 0.7052	748.2
12260 kPa, x2 = 0.7993	755.3
12260 kPa, x2 = 0.9039	764.4
14290 kPa, x2 = 0	717.2
14290 kPa, x2 = 0.09303	720.3
14290 kPa, x2 = 0.2009	724.2
14290 kPa, x2 = 0.3051	728.3
14290 kPa, x2 = 0.417	733.3
14290 kPa, x2 = 0.512	737.9
14290 kPa, x2 = 0.5996	743
14290 kPa, x2 = 0.7052	749.8
14290 kPa, x2 = 0.7993	756.9
14290 kPa, x2 = 0.9039	766
16310 kPa, x2 = 0	718.7
16310 kPa, x2 = 0.09303	721.8
16310 kPa, x2 = 0.2009	725.7
16310 kPa, x2 = 0.3051	729.9
16310 kPa, x2 = 0.417	734.8
16310 kPa, x2 = 0.512	739.4
16310 kPa, x2 = 0.5996	744.5
16310 kPa, x2 = 0.7052	751.4
16310 kPa, x2 = 0.7993	758.4
16310 kPa, x2 = 0.9039	767.5
18340 kPa, x2 = 0	720.2
18340 kPa, x2 = 0.09303	723.2
18340 kPa, x2 = 0.2009	727.2
18340 kPa, x2 = 0.3051	731.4
18340 kPa, x2 = 0.417	736.3
18340 kPa, x2 = 0.512	740.9
18340 kPa, x2 = 0.5996	746.1
